Experimental data: patent US20240208979A1, “sGC STIMULATORS” (Tisento Therapeutics Inc., priority 2021, published 2024)

Key:
human α2β1 sGC isozyme = target: T1, human α2β1 sGC isozyme (Homo sapiens, UniProt P33402+Q02153); test: cGMP assay on human α2β1 sGC isozyme stably expressed in CHO-K1 cells; format: cell-based; settings: 10 μM DETA-NONOate, 20 min, cGMP content, geometrical mean
T1 construct: host or cells: CHO-K1
T1 sequence (P33402 1-732): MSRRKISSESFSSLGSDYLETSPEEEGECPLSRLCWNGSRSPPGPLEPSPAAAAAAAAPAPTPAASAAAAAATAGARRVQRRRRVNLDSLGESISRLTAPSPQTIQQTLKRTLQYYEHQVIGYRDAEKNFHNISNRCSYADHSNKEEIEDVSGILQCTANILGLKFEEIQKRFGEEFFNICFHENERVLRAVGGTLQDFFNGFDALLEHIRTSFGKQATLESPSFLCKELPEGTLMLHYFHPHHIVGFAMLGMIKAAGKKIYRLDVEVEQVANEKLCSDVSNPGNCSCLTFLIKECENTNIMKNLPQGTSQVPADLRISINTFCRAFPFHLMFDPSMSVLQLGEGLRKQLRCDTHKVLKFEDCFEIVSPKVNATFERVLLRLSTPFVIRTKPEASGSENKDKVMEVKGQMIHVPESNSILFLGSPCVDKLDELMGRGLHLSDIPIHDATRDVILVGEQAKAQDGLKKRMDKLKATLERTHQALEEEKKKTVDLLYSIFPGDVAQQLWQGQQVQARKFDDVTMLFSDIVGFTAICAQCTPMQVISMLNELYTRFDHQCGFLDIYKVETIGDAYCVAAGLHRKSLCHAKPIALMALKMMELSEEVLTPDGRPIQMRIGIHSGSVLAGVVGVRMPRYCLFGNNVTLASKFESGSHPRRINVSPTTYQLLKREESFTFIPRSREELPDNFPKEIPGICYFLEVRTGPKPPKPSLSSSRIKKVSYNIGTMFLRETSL
T1 sequence (Q02153 1-619): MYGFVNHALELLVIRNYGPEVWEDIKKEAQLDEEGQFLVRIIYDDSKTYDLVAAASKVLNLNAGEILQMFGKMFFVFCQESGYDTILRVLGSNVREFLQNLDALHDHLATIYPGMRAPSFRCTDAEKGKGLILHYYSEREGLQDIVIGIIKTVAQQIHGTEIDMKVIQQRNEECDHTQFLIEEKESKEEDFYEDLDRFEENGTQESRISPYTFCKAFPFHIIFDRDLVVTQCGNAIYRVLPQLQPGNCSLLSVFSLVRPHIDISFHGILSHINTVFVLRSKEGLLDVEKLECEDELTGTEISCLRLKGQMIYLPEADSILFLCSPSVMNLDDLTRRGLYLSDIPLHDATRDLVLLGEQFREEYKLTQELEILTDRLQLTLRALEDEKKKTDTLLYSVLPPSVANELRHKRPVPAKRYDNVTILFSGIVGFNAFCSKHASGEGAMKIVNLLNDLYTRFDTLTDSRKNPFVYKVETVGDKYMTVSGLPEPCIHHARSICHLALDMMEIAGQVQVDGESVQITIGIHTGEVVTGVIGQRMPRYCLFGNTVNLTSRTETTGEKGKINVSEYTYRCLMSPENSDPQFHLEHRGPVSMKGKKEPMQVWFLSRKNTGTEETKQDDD
Experimental: sGC stimulators were dissolved in DMSO as a 10 mM solution and stored at −20° C. To achieve desired test concentrations, stock concentrations were serially diluted into DMSO and then diluted to the appropriate concentration in assay buffer.
CHO-K1 cells stably transfected with human α2β1 sGC isozyme (generated by GenScript for Ironwood) were cultured in F-12K medium (ATCC catalog #30-2004) with 10% fetal calf serum, 4 μg/mL puromycin (Gibco catalog #A11138-03) and 0.4 mg/mL of geneticin (Gibco catalog #10131-027) in a 95% humidified atmosphere containing 5% CO2 in air at 37° C. For GC activity assays, cells were seeded in 384 well poly-D-lysine coated flat bottom plates (Fisher Scientific #08-774-311) in either 50 μL or 70 μL medium at a density of either 3×10^4 cells/well or 15×10^3, respectively. Cells were incubated for 24 hours at 37° C. in a humidified chamber supplemented with 5% CO2. […]
Following incubation with compound, assay buffer was removed and 50 μL of ice-cold 10% acetic acid+150 ng/mL internal standard (+3 cGMP) was added to each well. […] Following centrifugation at 4° C. for 5 min at 1000×g to pellet cell debris, the supernatant was transferred to a clean plate and the samples analyzed for cGMP content.
Data were analyzed with a 4-parameter fit (log(agonist) vs. response—variable slope) using GraphPad Prism Software v.8. […]

normotensive rats = test: Blood pressure effects in normotensive rats following acute oral dose; format: in vivo, rat; settings: Milli-Q water
Experimental: Male, normotensive Sprague Dawley rats were purchased from Charles River Laboratories. These rats have indwelling femoral artery catheters installed. Animals were harnessed to a tether system and attached to pressure transducers to monitor cardiovascular (CV) parameters, specifically mean arterial pressure (MAP) and heart rate (HR). Animals were acclimated to the system overnight and baseline CV parameters collected. The conscious, freely moving rats were then administered a single oral dose of the Compound I-14 (doses generated from the sodium salt of Compound 14) in Milli-Q water at 1, 3, 10 and 30 mg/kg. A blood sample was collected from each animal through the catheter line at pre-dose and 2 hours post-dose for compound concentration quantification. Hemodynamic measures were recorded for ten hours post-dose. […]
ADInstruments LabChart (v8) was used to monitor and export hemodynamic data. Blood pressure and heart rate were continuously monitored, and data were collected at 1000 data points per second then averaged into 10-minute bins for analysis. Change from baseline MAP (ΔBMAP) and HR (ΔBHR) were calculated using the pre-dose baseline averaged over the 1-hr period prior to dosing using Microsoft Excel for Microsoft 365. […]
Statistical analyses were performed in Graphpad Prism (v8). […] Vehicle-adjusted HR (ΔVHR) was calculated in a similar manner to ΔVMAP. […]

Cc1cc(F)c(Cc2nc(-c3ncc(F)c(O)n3)cn3ccnc23)cc1F [Compound I-14, 5-fluoro-2-(8-(2,5-difluoro-4-methylbenzyl)imidazo[1,2-a]pyrazin-6-yl)pyrimidin-4-ol]
EC50 (human α2β1 sGC isozyme): ≤ 100 nM | effect on MAP from baseline and as adjusted from vehicle (normotensive rats; 3, 10, and 30 mg/kg single oral dose): lowered MAP | change from baseline MAP (ΔBMAP) compared with vehicle-treated rats (normotensive rats; single oral dose 1, 3, 10 and 30 mg/kg, 2-way ANOVA significant): greater decrease in MAP
